Values after ≈ are worked out from the molar mass of the structure shown. Values belong to the molecule of their own block, whether it stands above or below them.
What was measured:
physchem = settings: buffer, pH 6.5
in vivo [1] = settings: Sprague-Dawley, rat, iv, 1 mg/kg
in vivo [2] = settings: Sprague-Dawley, rat, po, 5 mg/kg
[3] = Half life in Sprague-Dawley rat at 1 mg/kg, iv by LC-MS/MS analysis; format: ADME, organism-based; settings: in vivo
[4] = Half life in mouse at 1 mg/kg, iv by LC-MS/MS analysis; format: ADME, organism-based; settings: in vivo
[5] = Volume of distribution at steady state in Sprague-Dawley rat at 1 mg/kg, iv by LC-MS/MS analysis; format: ADME, organism-based; settings: in vivo, read-out: Vdss
[6] = Half life in cynomolgus monkey at 0.5 mg/kg by LC-MS/MS analysis; settings: in vivo
[7] = Oral bioavailability in Sprague-Dawley rat at 100 mg/kg by LC-MS/MS analysis; format: ADME, organism-based; settings: in vivo
[8] = Volume of distribution at steady state in mouse at 1 mg/kg, iv by LC-MS/MS analysis; format: ADME, organism-based; settings: in vivo, read-out: Vdss
[9] = Oral bioavailability in cynomolgus monkey at 1 mg/kg by LC-MS/MS analysis; format: ADME, organism-based, Macaca fascicularis; settings: in vivo
[10] = Oral bioavailability in mouse at 100 mg/kg by LC-MS/MS analysis; format: ADME, organism-based; settings: in vivo
[11] = Total clearance in cynomolgus monkey at 0.5 mg/kg, iv by LC-MS/MS analysis; format: ADME, organism-based, Macaca fascicularis; settings: in vivo
[12] = Oral bioavailability in cynomolgus monkey at 100 mg/kg by LC-MS/MS analysis; format: ADME, organism-based, Macaca fascicularis; settings: in vivo
[13] = Total clearance in mouse at 1 mg/kg, iv by LC-MS/MS analysis; format: ADME, organism-based; settings: in vivo
[14] = Oral bioavailability in mouse at 5 mg/kg by LC-MS/MS analysis by LC-MS/MS analysis; format: ADME, organism-based; settings: in vivo
[15] = Volume of distribution at steady state in cynomolgus monkey at 0.5 mg/kg by LC-MS/MS analysis; settings: in vivo, read-out: Vdss

SMILES: Cn1ncc(NC(=O)c2nc(-c3c(F)cccc3F)sc2N)c1N1CCC[C@H](NCC(F)F)CC1
solubility thermodynamic (physchem): 1 µM (≈ 0.512 µg/mL)

SMILES: Cn1ncc(NC(=O)c2nc(-c3c(F)cccc3F)sc2N)c1N1CCCC(O)CC1 (stereo not drawn)
clearance (in vivo [1]): 7 mL/min/kg
bioavailability (in vivo [2]): 38%
solubility thermodynamic (physchem): < 1 µM

SMILES: CO[C@H]1C[C@H](N)CCN(c2c(NC(=O)c3nc(-c4c(F)cccc4F)sc3N)cnn2C)C1
clearance (in vivo [1]): 2 mL/min/kg
bioavailability (in vivo [2]): 3%
solubility thermodynamic (physchem): 62 µM (≈ 29.6 µg/mL)

SMILES: Cn1ncc(NC(=O)c2nc(-c3c(F)cccc3F)sc2N)c1N1CCC[C@H](NCC(F)(F)F)CC1
solubility thermodynamic (physchem): 1 µM (≈ 0.53 µg/mL)

Further lines, results first:

solubility thermodynamic (physchem): 88 µM (≈ 40.9 µg/mL)
SMILES: Cn1ncc(NC(=O)c2nc(-c3c(F)cccc3F)sc2N)c1C1CCC(N)C(F)CC1 (stereo not drawn)

clearance (in vivo [1]): 3 mL/min/kg
bioavailability (in vivo [2]): 24%
solubility thermodynamic (physchem): 16 µM (≈ 7.37 µg/mL)
SMILES: Cn1ncc(NC(=O)c2nc(-c3c(F)cccc3F)sc2N)c1[C@@]12CC[C@@H](N)[C@@H](CC1)O2

clearance (in vivo [1]): 8 mL/min/kg
half-life [3]: 1.8 h
bioavailability (in vivo [2]): 33%
half-life [4]: 0.9 h
Vd [5]: 0.9 L/kg
solubility thermodynamic (physchem): 67 µM (≈ 31.2 µg/mL)
half-life [6]: 1.8 h
bioavailability [7]: 28%
Vd [8]: 6.8 L/kg
bioavailability [9]: 35%
bioavailability [10]: 34%
clearance [11]: 34 mL/min/kg
bioavailability [12]: 60%
clearance [13]: 135 mL/min/kg
bioavailability [14]: 11%
Vd [15]: 5 L/kg
SMILES: Cn1ncc(NC(=O)c2nc(-c3c(F)cccc3F)sc2N)c1N1CC[C@@H](N)[C@H](F)CC1
